{"source": "a melting point compilation (Tetko et al.; mined from patent text by program, amines drawn as free bases though some values may be those of a salt)", "data": [{"units": {"melting point": "°C"}, "values": [{"smiles": "CCOC(=O)NN=Cc1nc(Cc2ccccc2)[nH]c1C", "melting point": "190 to 192"}, {"smiles": "CCc1cc(-c2cccc(N)n2)c(OC)cc1OCCN(C)C", "melting point": 109}, {"smiles": "O=C(CCC1CCN(Cc2ccccc2)CC1)c1cc2c3c(c1)CCN3C(=O)CC2", "melting point": "103 to 104"}, {"smiles": "COC(=O)c1ccc(N)c(C(=O)OC)c1", "melting point": "127 to 130"}, {"smiles": "CCCNC(=O)NCCCCN1CCC(CNC(=O)c2cc(Cl)c(N)cc2OC)CC1", "melting point": "114 to 115"}, {"smiles": "C[C@@H](CN(Cc1ccccc1)Cc1ccccc1)OC(=O)N1C(C)(C)COC1(C)C", "melting point": 117}, {"smiles": "CNC(=O)c1cccc(F)c1Nc1nc(Nc2ccc3c(c2)CCN(CCOC)CC3)ncc1Br", "melting point": "99 to 105"}, {"smiles": "Cc1ccc(S(=O)(=O)n2ccc3c(C(=O)c4ccccc4O)cccc32)cc1", "melting point": 110}, {"smiles": "COc1ccc2c(C)cc(=O)oc2c1C", "melting point": "162 to 164"}, {"smiles": "CCn1ccc(C(=O)c2sc(NC(=O)c3ccncc3)nc2-c2ccco2)cc1=O", "melting point": "277 to 281"}, {"smiles": "CC(C)(C)OC(=O)c1ccccc1-c1ccc(CBr)cc1", "melting point": "98 to 101"}, {"smiles": "CC(C)C(NC(=O)OCc1ccccc1)C(=O)NC(Cc1ccc(OCCN2CCOCC2)cc1)C(=O)C(F)(F)C(=O)NCc1ccccc1", "note": "(stereo unspecified)", "melting point": 142}, {"smiles": "O=C1CCC(c2ccccc2Cl)=NN1", "melting point": "114 to 116"}, {"smiles": "O=C(CC(=O)C(F)(F)F)c1ccc(Cl)cc1", "melting point": "66 to 67"}, {"smiles": "CCCCC(=O)C(Cc1ccc(C(=O)OC)cc1)c1ccccc1", "note": "(stereo unspecified)", "melting point": 58}, {"smiles": "O=C1CCC2=C1C(c1cccc([N+](=O)[O-])c1)C1=C(CCCS1)N2", "note": "(stereo unspecified)", "melting point": "> 260"}, {"smiles": "CCNC1CC=C(c2c[nH]c3cc(NC(=N)c4cccs4)ccc23)CC1", "note": "(stereo unspecified)", "melting point": "95 to 97"}, {"smiles": "O=C(O)c1cccc(-c2ccc3c(c2)N(c2ccc(Cl)cc2Cl)CCCC3)c1", "melting point": "131 to 132"}, {"smiles": "Cn1ccnc1-c1ccc(-c2cnc([C@H](Cc3ccccn3)N(C=O)c3cc4ccccc4[nH]3)n2C)cc1", "melting point": "218 to 222"}, {"smiles": "NC1=NS(=O)N=C1NCCCN(Cc1ccccc1F)c1ccccn1", "note": "(stereo unspecified)", "melting point": "180 to 182"}, {"smiles": "CC(C)(C)c1cc(C=O)c2ccccc2c1O", "melting point": "195 to 196"}, {"smiles": "O=C1c2ccccc2S(=O)(=O)N1CCCCN1CCN(c2cc(O)cc3c2OCCO3)CC1", "melting point": "179 to 181"}, {"smiles": "CCC(C)c1cc(Cl)cc(Cl)c1OCC(=O)N1CCSC1=S", "note": "(stereo unspecified)", "melting point": 96}, {"smiles": "C=CCOc1ccc(CCNC(=O)NC)cc1OC", "melting point": "81 to 83"}, {"smiles": "Nc1nc(Cl)nc(Cl)c1[N+](=O)[O-]", "melting point": "161 to 162"}, {"smiles": "CCN(CC)C(=O)OC1c2ccccc2C(=O)N1c1ccc2ccc(Cl)nc2n1", "note": "(stereo unspecified)", "melting point": "142 to 144"}, {"smiles": "CCCc1c(OCCCSc2nnc(NC(=O)CC(=O)O)s2)ccc(C(C)=O)c1O", "melting point": "172 to 174"}, {"smiles": "NC(=O)C[C@H](NC(=O)CCc1ccc(OCc2ccccc2)cc1OCc1ccccc1)C(=O)N1CCN(c2ccccc2)CC1", "melting point": "96 to 98"}, {"smiles": "O=C(NCc1ccc(F)cc1)c1nc2n(c(=O)c1O)CCN2Cc1ccccc1", "melting point": 225}, {"smiles": "O=C(Oc1ccc(Cl)cn1)c1cc2cc([N+](=O)[O-])ccc2oc1=O", "melting point": "287 to 289"}, {"smiles": "CCC(C)(CC)c1nnc(NC(=O)c2c(OC)cccc2OC)s1", "melting point": "208 to 210"}, {"smiles": "Cn1cc2c(CO)c(Br)ccc2n1", "melting point": "123 to 125"}, {"smiles": "CC(C)(C)c1cc(C(=O)Oc2ccc(Cl)c(N)c2)cc(C(C)(C)C)c1O", "melting point": "64 to 66"}, {"smiles": "CC(=O)Nc1nc2c(Oc3cc(-c4ccc(C(F)(F)F)cc4NCC4CCCCC4)ncn3)cccc2s1", "melting point": "232 to 234"}, {"smiles": "COc1ccc2c(c1)N(C)C(=O)N(c1ccc(Cl)cc1)S2(=O)=O", "melting point": "167 to 168"}, {"smiles": "CC(C)(C)[Si](C)(C)Oc1ccccc1-c1cc(-c2cccc([N+](=O)[O-])c2)c(C#N)c(NC(=O)c2ccsc2)n1", "melting point": "139 to 142"}, {"smiles": "CC(C)(C)OC(=O)NC(CF)C(F)CN1C(=O)c2ccccc2C1=O", "note": "(stereo unspecified)", "melting point": "152 to 153"}, {"smiles": "FC(F)(F)c1cc(NC(=S)N[C@@H]2CCCC[C@H]2NCc2ccccc2)cc(C(F)(F)F)c1", "melting point": "140 to 141"}, {"smiles": "CON1C=C2N=NC3=C(N2C1)N(C(C)C)CC=C3", "melting point": "159 to 162"}, {"smiles": "CCCc1c(OCCCOc2ccc(C(C)=O)c(OCc3ccccc3)c2CCC)ccc2c1OC(CO)CC2", "note": "(stereo unspecified)", "melting point": "83 to 85"}, {"smiles": "Nc1ccc2c(c1)CC(CC(=O)O)C2=O", "note": "(stereo unspecified)", "melting point": "192 to 194"}, {"smiles": "O=C1NC(=O)N2c3ccc(Cl)cc3[C@H]3CCN4CCC[C@H]1[C@H]4[C@H]32", "note": "(racemic)", "melting point": 243}, {"smiles": "C=C(OCC)c1cc(N)c(OC)c(C(=O)OC)n1", "melting point": "72 to 73"}, {"smiles": "CN1CCN(c2cccc3ccc(-c4cccc(NS(C)(=O)=O)c4)cc23)CC1", "melting point": "100 to 101"}, {"smiles": "CCOC(=O)c1sc(OCC)nc1-c1ccccc1", "melting point": "32 to 34"}, {"smiles": "CC1(C)OC(=O)C(=Cc2ccc(I)s2)C1=O", "melting point": "182 to 184"}, {"smiles": "Cn1nc(-c2c(F)cccc2Cl)nc1-c1ccc(Oc2ccc(C(F)(F)F)cn2)c(Cl)c1", "melting point": "116 to 117"}, {"smiles": "S=c1[nH]c(=S)c2ccccc2[nH]1", "melting point": "234 to 237"}, {"smiles": "O=C1C2=C(CCCC2)C(=O)N1c1cc([N+](=O)[O-])c(Cl)cc1F", "melting point": "152 to 155"}, {"smiles": "CCOC(=O)c1nc(-c2ccc(C(C)(C)C)cc2)[nH]c1-c1ccc([N+](=O)[O-])cc1", "melting point": "190 to 191"}, {"smiles": "CCNc1cccc2c(S(=O)(=O)Nc3ccc(Cl)nn3)cccc12", "melting point": "166 to 168"}, {"smiles": "CC(C)Nc1nc2c(Cl)c(Cl)c(Cl)cc2n1[C@H]1O[C@@H](CO)[C@H](O)[C@@H]1O", "melting point": "223 to 224"}, {"smiles": "CC(C)CC(=O)N1CCC(c2nc3cc(-c4ccc(C(N)=O)c(F)c4)ccc3o2)CC1", "melting point": "186 to 190"}, {"smiles": "Cc1cc(-c2sc(N3CCN(Cc4ccc(C(F)(F)F)cc4)C3=O)nc2C)n[nH]1", "melting point": "238 to 239"}, {"smiles": "COc1c(N2CCC(n3cc(C)nn3)C2)c(F)cc2c(=O)c(C(=O)O)cn(C3CC3)c12", "note": "(stereo unspecified)", "melting point": "174 to 176"}, {"smiles": "Cc1c(O)c2c(c(C)c1NC(=O)CC(C)(C)C)[C@@H](c1ccc(C(C)C)cc1)CO2", "melting point": "181 to 182"}, {"smiles": "CS(=O)(=O)OCCCC1Oc2cc3c(cc2NC1=O)CCCC3", "note": "(stereo unspecified)", "melting point": "153 to 154"}, {"smiles": "COc1cc2cc3c(Nc4ccc(Sc5nccn5C)c(Cl)c4)c(C#N)cnc3cc2cc1O", "melting point": "> 300"}, {"smiles": "COc1cc(C(=O)NC2CCN(C(=O)CN(C)C)CC2)ccc1Nc1ncc2c(n1)N(C1CCCCC1)CC(F)(F)C(=O)N2C", "melting point": "190 to 191"}, {"smiles": "O=C(N[C@H]1CC[C@H](CCN2CCN(c3nccc4c3OCC4)CC2)CC1)c1ccc(N2CCOCC2)cc1", "melting point": 242}, {"smiles": "CN(C)CCCOc1ccc(C[C@H](NC(=O)[C@@H]2CCCN2S(=O)(=O)c2ccc(Cl)s2)C(=O)O)cc1", "melting point": "> 200"}, {"smiles": "COC(=O)CCn1c(=O)[nH][nH]c1=O", "melting point": "150 to 153"}, {"smiles": "CC(C)(C)OC(=O)N1CCN(C(=O)c2cccs2)CC1", "melting point": 76}, {"smiles": "CCCCCCCCCCCCCCOC(=O)CS(=O)(=O)Nc1c(C(C)C)cccc1C(C)C", "melting point": "53 to 55"}, {"smiles": "CCC(CC)n1nnc2cc(C)c(C)c(N)c21", "melting point": "114 to 117"}, {"smiles": "CCn1ncc2c(NCC3CCCCC3)c3cc(Br)ccc3nc21", "melting point": "158 to 160"}, {"smiles": "CCOc1cc(Cn2cc(CCC(=O)O)c(-c3ccccc3)c2)cc(OCc2csc(-c3ccccc3)n2)c1", "melting point": "109 to 110"}, {"smiles": "Cc1cccc2c1nc(-c1ccncc1)n2Cc1c(F)cccc1F", "melting point": "171 to 172"}, {"smiles": "O=Cc1nn(-c2ccc([N+](=O)[O-])cc2)c2c1CCCC2", "melting point": "147 to 148"}, {"smiles": "CCOC(=O)c1cccc2c1Nc1ccc(C(=O)c3ccccc3)cc1N2", "melting point": "175 to 177"}, {"smiles": "Cc1cccnc1-n1c(C)nc2ccccc2c1=O", "melting point": "135 to 137"}, {"smiles": "CC[C@H](C)[C@H](OCc1cc(F)cc(F)c1)[C@H]1[C@H]([N+](=O)[O-])[C@H](c2ccccc2)N[C@@H]1C(=O)NCC(=O)O", "melting point": "140 to 141"}, {"smiles": "CN(C)S(=O)(=O)c1cc(-n2c(=O)cc(C(F)(F)F)[nH]c2=O)ccc1Cl", "melting point": "281 to 283"}, {"smiles": "CC(C)Nc1cccnc1N1CCN(C(=O)c2ccc(C(=O)NCCO)cc2)CC1", "melting point": "182 to 184"}, {"smiles": "CN(C1CCN(C(=O)OC(C)(C)C)CC1)S(=O)(=O)c1ccc(Nc2nccc(Nc3ccc(F)cc3)n2)cc1", "melting point": "174 to 176"}, {"smiles": "CC(C)(C)Oc1cccc(Cl)c1C(=O)O", "melting point": "117 to 119"}, {"smiles": "Cc1cc2c3c(ccc2cc1C=O)OC(=O)C3(C)C", "melting point": "193 to 195"}, {"smiles": "CCOC(=O)c1c(O)nc2c(C(F)(F)F)cccc2c1O", "melting point": 190}, {"smiles": "O=C(Nc1ccc(Cl)cn1)c1oc2ccc(C(=O)N3CCOCC3)cc2c1NC(=O)[C@H]1CC[C@H](N2CCCC2=O)CC1", "melting point": "253 to 255"}, {"smiles": "CC(c1c[nH]c([N+](=O)[O-])n1)N1CCCCC1", "note": "(stereo unspecified)", "melting point": "61 to 62"}, {"smiles": "COc1ccc(-c2c(Cl)c(CN3C(=O)CCC3=O)nc3sc4c(c23)CCN(C(C)=O)C4)cc1OC", "melting point": "208 to 210"}, {"smiles": "Cc1ccc2cccc(OCc3c(Cl)ccc(S(=O)(=O)N(C)Cc4cccc(C(N)=O)c4)c3Cl)c2n1", "melting point": 208}, {"smiles": "OC1CSC(Oc2cnc(-c3cccnc3)c(F)c2)C(O)C1O", "note": "(stereo unspecified)", "melting point": 179}, {"smiles": "COC(=O)c1ccccc1NCCCc1ccccc1", "melting point": "103 to 105"}, {"smiles": "CC(=Cc1ccc(C)cc1)COc1cc(C)c(NC=O)c(C)c1C", "melting point": "167 to 169"}, {"smiles": "CCOC(=O)C1=C(C)NC(=S)N(C(=O)OCC)C1c1ccccc1OCc1ccccc1", "note": "(stereo unspecified)", "melting point": "153 to 155"}, {"smiles": "Cn1nc(Sc2ccc(C(=O)OCC(C)(C)C)c(Cl)c2)n(C)c1=O", "melting point": 101}, {"smiles": "O=C1CC(CCN2CCC(c3c[nH]c4ccccc34)CC2)c2ccccc2N1", "note": "(stereo unspecified)", "melting point": "115 to 117"}, {"smiles": "CSc1cc2c(cn1)c(=O)n1nccc1n2C", "melting point": 267}, {"smiles": "COc1cccc(C2(CC(=O)O)CNC(=O)C2)c1", "note": "(stereo unspecified)", "melting point": "144 to 146"}, {"smiles": "CN(Cc1ccccc1)C(=O)CCc1nc(-c2ccc(Cl)cc2)co1", "melting point": "99 to 100"}, {"smiles": "C=C[C@H]1CC(C(=O)OC)=C[C@@H](OC(C)C)[C@@H]1NC(C)=O", "melting point": "132 to 133"}, {"smiles": "c1ccc(C2(Oc3ccccn3)CCNCC2)cc1", "melting point": "86 to 87"}, {"smiles": "COCCOc1cc(NC(=O)OC(C)(C)C)c(NC(=O)CC(=O)c2cccc(-n3ccnc3)c2)cc1-c1ccc(F)cc1", "melting point": "61 to 63"}, {"smiles": "CCCCOc1ccc(Cl)cc1C(=O)NCCc1ccc(CC(=O)O)cc1", "melting point": "104 to 105"}, {"smiles": "Brc1ccc(C2CC(n3ccnc3)c3ccccc3N2)cc1", "note": "(stereo unspecified)", "melting point": "142 to 144"}]}]}
